Literature values, collected in patent US20040039052A1, “Urinary incontinence therapy” (priority 1997, published 2004).

How the values were obtained:
[1] = system: bladder afferents; conditions: rats; intravesicular 10-100 μmol; cited from earlier work
[2] = system: vanilloid receptor-mediated release of tachykinins in the rat urinary bladder; conditions: rats with experimentally induced hypertrophy; cited from earlier work
[3] = system: patients with detrusor hyperreflexia (DH); conditions: intravesical instillation; cited from earlier work

## COc1cc(CNC(=O)CCCC/C=C/C(C)C)ccc1O [CAP, capsaicin, reference compound]
[1]
  desensitization of bladder afferents: long-lasting desensitization of bladder afferents
[2]
  reducing symptoms in rats having an experimentally induced hypertrophy: effective in reducing symptoms
[3]
  period after treatment when symptoms deteriorate: 2 to 4 days
  tolerability upon instillation: intense burning and pain in the lower abdomen upon instillation
